Data from patent publication US20230295157A1, “3-(1H-IMIDAZOL-2-YL)-2,3,8,8A-TETRAHYDROINDOLIZIN-5(1H)-ONE DERIVATIVES USEFUL AS FACTOR XIA INHIBITORS” (JANSSEN PHARMACEUTICA NV, priority 2020, published 2023).
Read-outs that look alike come from different tables or passages of the source.

Key:
human plasma kallikrein = human plasma kallikrein (Homo sapiens (Human), UniProt P03952); assay: Kallikrein inhibition assay (FLINT) utilizing a quenched AMC peptide substrate; type: biochemical; details: 30 min preincubation, kinetic reads over 30 min, Z-Gly-Pro-Arg-AMC substrate 50 μM; read-out: Kallikrein Kin Inh IC50
human plasma kallikrein, sequence (P03952 391-638): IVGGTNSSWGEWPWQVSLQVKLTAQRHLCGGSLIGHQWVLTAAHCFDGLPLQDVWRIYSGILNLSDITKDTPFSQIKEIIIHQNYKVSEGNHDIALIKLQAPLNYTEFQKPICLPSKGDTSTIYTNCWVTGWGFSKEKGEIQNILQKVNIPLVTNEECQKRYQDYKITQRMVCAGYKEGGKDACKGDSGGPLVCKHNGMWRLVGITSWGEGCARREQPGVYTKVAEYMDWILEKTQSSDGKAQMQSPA
human plasma kallikrein, sequence (P03952 20-390 partner): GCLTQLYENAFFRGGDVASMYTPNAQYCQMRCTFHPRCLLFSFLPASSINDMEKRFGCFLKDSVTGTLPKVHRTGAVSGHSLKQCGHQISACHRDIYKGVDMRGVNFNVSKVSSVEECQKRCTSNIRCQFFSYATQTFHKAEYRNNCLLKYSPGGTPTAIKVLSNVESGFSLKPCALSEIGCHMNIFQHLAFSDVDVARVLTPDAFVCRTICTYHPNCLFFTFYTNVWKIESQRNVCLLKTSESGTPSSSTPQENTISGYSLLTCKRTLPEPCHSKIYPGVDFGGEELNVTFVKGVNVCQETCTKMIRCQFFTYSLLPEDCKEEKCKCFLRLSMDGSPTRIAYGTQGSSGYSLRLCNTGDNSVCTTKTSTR
Description: Biological Example 2: Kallikrein Inhibition Assay Utilizing a Quenched AMC Peptide Substrate A fluorescence intensity (FLINT) based assay was used to monitor inhibition of human plasma kallikrein.
The Kallikrein FLINT assay was used with the following Z-Gly-Pro-Arg-AMC assay buffer: 50 mM Tris, pH 7.5, 100 mM NaCl, 5 mM CaCl2), 0.1 mg/mL BSA, 0.03% CHAPS. Assay buffer was prepared by mixing all ingredients fresh. 2×Z-Gly-Pro-Arg-AMC peptide substrate was prepared by diluting 10 mM stock into 1×assay buffer for a 100 μM working concentration (50 μM final concentration). The 2×kallikrein stock solution was prepared by diluting 14.76 μM stock in 1×assay buffer for a 4 nM working stock solution (2 nM final concentration).
Test compound(s) were run in an 11-point, 3-fold serial dilution with a final top compound concentration of 1 μM. Final DMSO in assay was 2%. Plasma kallikrein was pre-incubated for 30-minute with compound and then 50 μM substrate was added to initiate the reaction. The assay was run with kinetic (KIN) reads at 5 min intervals over 30 minutes. […] More specifically, the assay was run as follows: • 100 nL of 0.1 mM test compound was dispensed into black 384-well non-binding Greiner BioOne 784900 plate for 1 μM final concentration; • 5 μL of 1×assay buffer was dispensed to columns 24 (low control) and 5 μL 2×human kallikrein enzyme solution was dispensed to columns 1-23 (column 23 high control); • the plate was centrifuged with a “cover” plate at 500 rpm for 1 min • the plate was pre-incubated for 30 minutes at room temperature with plate covered; • 5 μL of 2×Z-Gly-Pro-Arg-AMC peptide substrate was dispensed into the entire plate, columns 1-24; • the plate was centrifuged with a “cover” plate at 500 rpm for 1 min; • the plate was read monitoring fluorescence intensity on the BMG PHERAStar at room temperature, using fluorescence module 340 nm/440 nm.
(§1) Percent inhibition (IC50) curves were generated per compound tested, and data was analyzed using a 4-parameter logistic fit using GeneData Screener. The relative fluorescence unit (RFU) values were normalized to percent inhibition using the following equation:
% inhibition=((HC-LC)−(compound-LC)\(HC-LC))*100 where LC—low control=mean signal of human kallikrein enzyme or 100% inhibition of human kallikrein enzyme; HC—high control=mean signal of Factor XIa+Z-Gly-Pro-Arg-AMC peptide substrate with DMSO only.
(§2) An 11-point dose response curve for the test compound(s) was generated using GENDATA to determine IC50 value based on the following equation:
Y=Bottom+(Top-Bottom)/(1+10^((logIC50−X)*HillSlope)) where Y is the % inhibition in the presence of X inhibitor concentration, Top=high control=mean signal of human kallikrein enzyme+Z-Gly-Pro-Arg-AMC peptide substrate with DMSO only; Bottom=low control−mean signal of no human kallikrein enzyme or 100% inhibition of human kallikrein enzyme; HillSlope—Hill coefficient; and IC50=concentration of compound with 50% inhibition in relation to top/high control.

Factor XIa = Factor XIa (Homo sapiens (Human), UniProt P03951); assay: Factor XIa inhibition assay (FLINT) utilizing a fluorophore-quencher pair peptide substrate; type: biochemical; details: 30 min preincubation, kinetic reads over 30 min, read-out: FXIa Kin Inh IC50
Factor XIa, sequence (P03951 388-625): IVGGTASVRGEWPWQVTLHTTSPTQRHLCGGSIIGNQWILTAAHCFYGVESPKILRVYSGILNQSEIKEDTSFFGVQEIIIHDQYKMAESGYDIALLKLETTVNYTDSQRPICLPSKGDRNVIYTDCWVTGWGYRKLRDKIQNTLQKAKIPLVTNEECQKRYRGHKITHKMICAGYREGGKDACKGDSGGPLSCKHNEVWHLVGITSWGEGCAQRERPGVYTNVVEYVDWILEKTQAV
Factor XIa, sequence (P03951 19-387 partner): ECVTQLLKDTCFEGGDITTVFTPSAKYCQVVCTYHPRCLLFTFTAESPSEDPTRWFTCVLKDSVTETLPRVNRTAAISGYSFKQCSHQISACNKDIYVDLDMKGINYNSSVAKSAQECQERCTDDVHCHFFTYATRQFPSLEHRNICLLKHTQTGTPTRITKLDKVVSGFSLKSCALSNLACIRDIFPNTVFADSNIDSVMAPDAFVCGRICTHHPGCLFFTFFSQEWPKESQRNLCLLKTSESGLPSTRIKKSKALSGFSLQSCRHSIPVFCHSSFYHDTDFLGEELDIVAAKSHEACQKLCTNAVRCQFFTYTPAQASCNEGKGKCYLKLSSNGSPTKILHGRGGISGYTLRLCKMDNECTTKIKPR
Description: Biological Example 1: Factor XIa Inhibition Assay Utilizing a Fluorophore-Quencher Pair Peptide Substrate
A fluorescence intensity (FLINT) based assay was used to monitor inhibition of Factor XIa. The peptide substrate, 5Fam-[…]-K5Tamra (purchased from New England Peptide) was chosen based on the FXI sequence. Conversion of zymogen […]. The custom peptide used in this assay was based on the Arg146 cleavage site of FXI. The peptide substrate was designed with a fluorophore-quencher pair, where the fluorescence is quenched until FXIa cleaves the 8-mer peptide after the Arg residue.
The Factor XIa FLINT assay was used with the following 5Fam-[…]-K5Tamra assay buffer: 50 mM Tris, pH 7.5, 100 mM NaCl, 5 mM CaCl2), 0.1 mg/mL BSA, 0.03% CHAPS. Assay buffer was prepared by mixing all ingredients fresh. 5Fam-[…]-K5Tamra peptide substrate was first prepared at 10 mM in 100% DMSO, then diluted to 3 mM in 100% DMSO. Assay buffer was then added directly to the 3 mM stock of substrate to prepare the 30 μM 2× working concentration (15 μM final concentration). The 2×Factor XIa stock solution was prepared by diluting 6.562 μM stock in 1×assay buffer for a 200 μM working stock solution (100 μM final concentration).
Test compound(s) were run in an 11-point, 3-fold serial dilution with a final top compound concentration of 100 nM. Final DMSO in assay was 2%. FXIa was preincubated with compound for 30-minutes and then substrate was added to initiate the reaction. The assay was run with kinetic (KIN) reads at 5 min intervals over 30 minutes. The time course was linear using 100 μM FXIa greater than 30 minutes. More specifically, the assay was run as follows: • 100 nL of 0.01 mM test compound was dispensed into black 384 well non-binding Greiner BioOne 784900 plate for 0.1 μM final concentration; • 5 μL of 1×assay buffer was dispensed to column 24 (low control) and 5 μL 2×Factor XIa solution was dispensed to columns 1-23 (column 23 high control); • the plate was centrifuged with a “cover” plate at 500 rpm for 1 min • the plate was pre-incubated for 30 minutes at room temperature with plate covered; • 5 μL of 2×5Fam-[…]-K5Tamra peptide substrate was dispensed into the entire plate, columns 1-24; • the plate was centrifuged with a “cover” plate at 500 rpm for 1 min; • the plate was read monitoring fluorescence intensity on the BMG PHERAStar at room temperature, using fluorescence module 485 nm/520 nm.
as §1
% inhibition=((HC-LC)−(compound−LC)/(HC-LC))*100
where LC—low control=mean signal of no Factor XIa or 100% inhibition of Factor XIa; HC—high control=mean signal of Factor XIa+5Fam-[…]-K5Tamra peptide substrate with DMSO only.
as §2
Y=Bottom+(Top-Bottom)/(1+10^((logIC50-X)*HillSlope))
where Y is the % inhibition in the presence of X inhibitor concentration, Top=high control=mean signal of Factor XIa+5Fam-[…] K5Tamra peptide substrate with DMSO only; Bottom=low control−mean signal of no Factor XIa or 100% inhibition of Factor XIa; HillSlope—Hill coefficient; and IC50=concentration of compound with 50% inhibition in relation to top/high control.
Representative compounds of the present invention were tested according to the procedure described in Biological Example 1 and Biological Example 2 above, with results as listed in Table 3, below.

[1] = 5Fam-KLTRAETV-K5Tamra substrate 15 μM
[2] = 5Fam-[…]-K5Tamra substrate 15 μM

Q: For `NC(=O)c1ccc(-c2cnc([C@@H]3CC[C@H]4CC(c5c(-n6cnnn6)ccc(Cl)c5F)=CC(=O)N43)[nH]2)c(Cl)n1` [Example 228, 6-Chloro-5-(2-((3S,8aS)-7-(3-chloro-2-fluoro-6-(1H-tetrazol-1-yl)phenyl)-5-oxo-1,2,3,5,8,8a-hexahydroindolizin-3-yl)-1H-imidazol-5-yl)picolinamide], which IC50 (human plasma kallikrein) is on record?
A: The IC50 was 162 nM.

Q: And the IC50 (Factor XIa; [1])?
A: The IC50 was 18.8 nM.

Q: Which results are given for `O=C1C=C(c2c(-n3cc(C(F)(F)F)nn3)ccc(Cl)c2F)C[C@H]2CC[C@@H](c3ncc(-c4ccc5[nH]c(=O)ccc5c4)[nH]3)N12` (single isomer, unassigned) [Example 152, 6-[2-[(3S,8a*R)-7-[3-chloro-2-fluoro-6-[4-(trifluoromethyl)triazol-1-yl]phenyl]-5-oxo-2,3,8,8a-tetrahydro-1H-indolizin-3-yl]-1H-imidazol-5-yl]-1H-quinolin-2-one]?
A: IC50 (human plasma kallikrein): 1 nM; IC50 (Factor XIa; [1]): 0.7 nM

Q: `Nc1nccc(-c2[nH]c([C@@H]3CC[C@@H]4CC(c5cc(Cl)ccc5-n5cnnn5)=CC(=O)N43)nc2F)c1F` (single isomer, unassigned) [Example 70, (3S*,8aR)-3-(5-(2-amino-3-fluoropyridin-4-yl)-4-fluoro-1H-imidazol-2-yl)-7-(5-chloro-2-(1H-tetrazol-1-yl)phenyl)-2,3,8,8a-tetrahydroindolizin-5(1H)-one] was tested. Which IC50 (human plasma kallikrein) did it give?
A: The IC50 was 2.6 nM.

Q: And the IC50 (Factor XIa; [2])?
A: The IC50 was 0.3 nM.

Q: With `Nc1cc(-c2cnc([C@@H]3CC[C@@H]4CC(c5c(-n6cnnn6)ccc(Cl)c5F)=CC(=O)N43)[nH]2)ccn1` [Example 389, (3S,8aR)-3-(5-(2-aminopyridin-4-yl)-1H-imidazol-2-yl)-7-(3-chloro-2-fluoro-6-(1H-tetrazol-1-yl)phenyl)-2,3,8,8a-tetrahydroindolizin-5(1H)-one] as the compound, how does the IC50 (human plasma kallikrein) read?
A: The IC50 was 12.4 nM.

Q: What about the IC50 (Factor XIa; [1]) of the same compound?
A: The IC50 was 1.4 nM.

Q: With `O=C1C=C(c2c(-n3cnnn3)ccc(Cl)c2F)C[C@H]2CC[C@@H](c3ncc(-c4ccnc(-n5cccn5)c4)[nH]3)N12` [Example 93, (3S,8aR)-3-(5-(2-(1H-pyrazol-1-yl)pyridin-4-yl)-1H-imidazol-2-yl)-7-(3-chloro-2-fluoro-6-(1H-tetrazol-1-yl)phenyl)-2,3,8,8a-tetrahydroindolizin-5(1H)-one] as the compound, how does the IC50 (human plasma kallikrein) read?
A: The IC50 was 3.1 nM.

Q: What about the IC50 (Factor XIa; [1]) of the same compound?
A: Its IC50 is 10.3 nM.

Q: Which IC50 (human plasma kallikrein) does the source give for `CCC(=O)Nc1ccccc1-c1c[nH]c([C@@H]2CC[C@H]3CC(c4c(-n5cnnn5)ccc(Cl)c4F)=CC(=O)N32)n1` (relative stereo) [Example 296, N-(2-(24(3S,8aS*)-7-(3-Chloro-2-fluoro-6-(1H-tetrazol-1-yl)phenyl)-5-oxo-1,2,3,5,8,8a-hexahydroindolizin-3-yl)-1H-imidazol-4-yl)phenyl)propionamide] here?
A: Its IC50 is 5.4 nM.

Q: And the IC50 (Factor XIa; [1])?
A: Its IC50 is 0.6 nM.

Q: What does the source list for `O=C1C=C(c2c(-n3cnnn3)ccc(Cl)c2F)C[C@H]2CC[C@H](c3ncc(-c4ccnc(-n5cnnc5)c4F)[nH]3)N12` (relative stereo) [Example 78, (3R*,8aR)-7-(3-chloro-2-fluoro-6-(1H-tetrazol-1-yl)phenyl)-3-(5-(3-fluoro-2-(4H-1,2,4-triazol-4-yl)pyridin-4-yl)-1H-imidazol-2-yl)-2,3,8,8a-tetrahydroindolizin-5(1H)-one]?
A: IC50 (human plasma kallikrein): 136 nM; IC50 (Factor XIa; [2]): 40.9 nM

Q: For `O=C1C=C(c2c(-n3cnnn3)ccc(Cl)c2F)C[C@H]2CC[C@@H](c3ncc(-c4ccnc(-n5nccn5)c4)[nH]3)N12` [Example 86, (3S,8aR)-7-[3-chloro-2-fluoro-6-(tetrazol-1-yl)phenyl]-3-[5-[2-(triazol-2-yl)-4-pyridyl]-1H-imidazol-2-yl]-2,3,8,8a-tetrahydro-1H-indolizin-5-one], which IC50 (human plasma kallikrein) is on record?
A: The IC50 was 3.2 nM.

Q: And the IC50 (Factor XIa; [1])?
A: Its IC50 is 4.6 nM.

Q: For `O=C1C=C(c2cc(Cl)ccc2-n2cc(C(F)(F)F)nn2)C[C@H]2CC[C@@H](c3ncc(-c4ccc5[nH]c(=O)ccc5c4)[nH]3)N12` [Example 101, 6-(2-((3S,8aR)-7-(5-chloro-2-(4-(trifluoromethyl)-1H-1,2,3-triazol-1-yl)phenyl)-5-oxo-1,2,3,5,8,8a-hexahydroindolizin-3-yl)-1H-imidazol-5-yl)quinolin-2(1H)-one], which IC50 (human plasma kallikrein) is on record?
A: The IC50 was 1.9 nM.

Q: And the IC50 (Factor XIa; [1])?
A: Its IC50 is 0.6 nM.

Q: `NC(=O)c1cc(-c2cnc([C@@H]3CC[C@@H]4CC(c5c(-n6cnnn6)ccc(Cl)c5F)=CC(=O)N43)[nH]2)ccn1` (single isomer, unassigned) [Example 206] was tested. Which IC50 (human plasma kallikrein) did it give?
A: Its IC50 is 9.5 nM.

Q: And the IC50 (Factor XIa; [1])?
A: The IC50 was 10.6 nM.

Q: `O=C1C=C(c2c(-n3cnnn3)ccc(Cl)c2F)C[C@H]2CC[C@@H](c3ncc(-c4ccnc(C5COC5)c4F)[nH]3)N12` [Example 130, (3S,8aR)-7-(3-chloro-2-fluoro-6-(1H-tetrazol-1-yl)phenyl)-3-(5-(3-fluoro-2-(oxetan-3-yl)pyridin-4-yl)-1H-imidazol-2-yl)-2,3,8,8a-tetrahydroindolizin-5(1H)-one] was tested. Which IC50 (human plasma kallikrein) did it give?
A: The IC50 was 12.7 nM.

Q: What about the IC50 (Factor XIa; [1]) of the same compound?
A: Its IC50 is 3.5 nM.

Q: How did the IC50 (human plasma kallikrein) turn out when `Nc1ccc(-c2cnc([C@@H]3CC[C@@H]4CC(c5cc(Cl)ccc5-n5cnnn5)=CC(=O)N43)[nH]2)c(F)n1` (single isomer, unassigned) [Example 122, (3*S,8aR)-3-(5-(6-amino-2-fluoropyridin-3-yl)-1H-imidazol-2-yl)-7-(5-chloro-2-(1H-tetrazol-1-yl)phenyl-3-d)-2,3,8,8a-tetrahydroindolizin-5(1H)-one] was run?
A: Its IC50 is 53.1 nM.

Q: What about the IC50 (Factor XIa; [1]) of the same compound?
A: Its IC50 is 4 nM.
